Measured values as given in patent US20250345343A1, “PHARMACEUTICAL COMPOSITION FOR PREVENTION OR TREATMENT OF SOLID CANCER COMPRISING EPIDITHIODIOXOPIPERAZINE DERIVATIVE OR PHARMACEUTICALLY ACCEPTABLE SALT THEREOF” (priority 2019, published 2025).

Experiments:
[1] = Cell proliferation assay (WST-1): cytotoxicity and proliferation of breast cancer cells; assay type: cell-based; details: human; up to a concentration of about 200 nM; breast cancer cells MDA-MB-231 and Hs-578T
Description: (§1) The cells (2×10^3 cells/well) were cultured in 96-well plates for 24 hours, and then treated with the compound of the present invention for 2 hours. The cells were placed in fresh complete media and cultured for the labelled time. For cell proliferation, the cells were treated with WST-1 reagent for 1 hour, and the absorbance of the formazan product at 450 nm was measured using a UV/VIS ELISA reader.
(§2) Among the cancer cells prepared according to Experimental Example 1, breast cancer cell lines MDA-MB-231 and Hs-578T were treated with DMSO as a control vehicle and a natural epidithiodioxopiperazine derivative gliotoxin, the cytotoxicity and proliferation rate at each concentration of the treated compound were calculated according to Experimental Example 2, and the results are illustrated in FIG. 1.

[2] = system: breast cancer cell lines MDA-MB-231 and Hs-578T; experiment: as above; assay type: cell-based; details: breast cancer cells
Description: as §1, §2

[3] = system: breast cancer cell lines MDA-MB-231 and Hs-578T; experiment: Migration assay (trans-well); assay type: cell-based; details: 24 hours
Description: The cells (2×10^5 cells/well) were cultured in 6-well plates for 24 hours, and then treated with the compounds of the present invention for 2 hours. After treatment, the cells were serum-starved by further culturing in fresh culture medium containing 0.5% FBS for 12 hours. The serum-starved cells (5×10^4 cells/well) were transferred to the upper chamber (8 μm pore size) of a 24-well trans-well culture plate (Costar) with the bottom layer pre-coated with 0.1% gelatin B (Sigma Aldrich). The lower chamber was filled with culture medium containing 20% FBS. Twenty-four hours after plating, non-migrated cells in the upper chamber were removed. After the cells which had not migrated from the upper chamber were removed, the upper chamber was fixed with methanol and stained with 0.6% hematoxylin (DAKO). The stained cells were photographed and counted. The number of migratory cells was determined by averaging the values from three wells.
Among the cancer cells prepared according to Experimental Example 1, breast cancer cell lines MDA-MB-231 and Hs-578T were treated with DMSO as a control vehicle and natural epidithiodioxopiperazine derivative gliotoxin, cell migration to the FBS-containing medium was observed and the number of migrated cells was counted according to Experimental Example 5, and the results are illustrated in FIGS. 3 and 4.

[4] = system: breast cancer cell lines MDA-MB-231 and Hs-578T; experiment: Cell cycle assay (PI staining, flow cytometry); assay type: cell-based; details: treated 2 hours, cultured 24 hours
Description: The cells (2×10^5 cells/well) were cultured in 6-well plates for 24 hours, and then treated with the compounds of the present invention for 2 hours. The cells were placed in fresh complete media and further cultured for 24 hours. The cells were fixed overnight in 70% ethanol at 4° C., washed with cold PBS, and re-suspended in PBS solution containing RNase A (10 μg/mL) at 37° C. for 30 minutes. The suspended cells were stained with propidium iodide (PI, 50 μg/mL, Invitrogen) for 5 minutes, and flow cytometry (FACS Calibur, BD) was performed. The cell population was analyzed using ModiFit LT software.
Among the cancer cells prepared according to Experimental Example 1, breast cancer cell lines MDA-MB-231 and Hs-578T were not treated or were treated with a natural epidithiodioxopiperazine derivative gliotoxin, the cell cycle was analyzed and the cell percentage in G1 phase was calculated according to Experimental Example 4, and the results are illustrated in FIG. 2.

[5] = system: MDA-MB-231, Hs-578T, A549, H460, MKN28, MKN74, SK-MEL-5, SK-MEL-28, RKO, HCT116, PC3 and Panc-1 cancer cells; experiment: Colony formation assay; assay type: cell-based; details: for colony formation inhibition: low concentrations (50 nM and 200 nM), 10 days
Description: The cells (2×10^3 cells/well) were cultured in 6-well plates for 24 hours, and then treated with the compounds of the present invention for 2 hours. The cells were placed in fresh complete media and additionally cultured for 10 days. The cells were washed with PBS and stained with crystal violet. Blue-stained colonies were manually counted.
Among the cancer cells prepared according to Experimental Example 1, breast cancer cell lines MDA-MB-231 and Hs-578T; lung cancer cell lines A549 and H460; stomach cancer cell lines MKN28 and MKN74; skin cancer cell lines SK-MEL-5 and SK-MEL-28; colon cancer cell lines RKO and HCT116; a prostate cancer cell line PC3; and a pancreatic cancer cell line Panc-1 were treated with DMSO as a control vehicle and synthetic epidithiodioxopiperazine derivatives A2, A5, and A10.

[6] = system: various cancer cell lines and three normal cells (MCF-10A, IMR90, and CCD-841); experiment: Cell viability assay (Cell Titer-Glo), cancer cells versus normal cells; assay type: cell-based; details: 50 nM and 200 nM
From the text: FIG. 5 is diagrams illustrating the cytotoxic effect of a synthetic epidithiodioxopiperazine derivative on various cancer cells and normal cells. (A) to (J) respectively illustrate the cell viability quantified by the Cell Titer-Glo assay system of breast cancer cells, lung cancer cells, stomach cancer cells, skin cancer cells, colon cancer cells, prostate cancer cells, pancreatic cancer cells, normal breast cells, normal fibroblasts, and normal epithelial cells after treating with the labelled ETP compound for 24 hours (n=3). And IC50 values are determined using a linear regression program (GraphPad Prism) and illustrated in (K).
In order to determine the IC50 value for examining cytotoxicity, the cells (2×10^5 cells/well) were aliquoted into 96-well plates and treated with the labelled compounds at various concentrations for 24 hours. The cell viability was measured using the Cell Titer-Glo Luminescence Assay Reagent Kit (Promega, G7570), and the luminescence was read using an Envision plate reader. The percentage of cell growth with respect to that in the vehicle control group (0.1% DMSO-treated cells) was calculated.

[7] = system: patient-derived lung adenocarcinoma tumor; experiment: Patient-derived tumor xenograft experiment; assay type: in vivo, mice
Description: Animal experiments were approved by the Institutional Animal Care and Use Committee (IACUC) of Seoul National University College of Medicine and complied with ARRIVE (Animal Research: Reporting of In Vivo Experiments) guidelines. Patient-derived lung tumors were subcutaneously implanted into the backs of 4-week-old and 17-week-old NSG (NOD-scid-IL2Rgnull) and humanized NSG (HuNSG) mice, respectively. The compound represented by Chemical Formula 7 (A5, 300 mg/kg) and/or pembrolizumab (humanized anti-PD-1 antibody, 5 mg/kg) dissolved in PBS were intraperitoneally injected to the mice every 3 days for 3 weeks and every 5 days for 3 weeks, respectively. The tumors were allowed to grow for 28 days, excised, and quantified. The tumor volume was measured every 3 days using Vernier calipers and calculated using the following equation.
In the equation, a and b mean the superficial diameter of major axis and the superficial diameter of minor axis, respectively.
While the mouse models prepared by implanting a patient-derived lung adenocarcinoma tumor according to Experimental Example 10 were not treated, were treated only with a representative synthetic epidithiodioxopiperazine derivative A5, or were concurrently treated with A5 and pembrolizumab, a humanized antibody known to be used for cancer immunotherapy, the changes in volume of the tumor were periodically observed, and the results are illustrated in FIG. 15.

| Structure (SMILES) | migration of breast cancer cells induced to the serum-containing medium [3] | colony formation inhibitory effect ([5]; 50 nM) | colony formation inhibitory effect ([5]; 200 nM) | colony formation inhibition [5] | non-specific cytotoxicity [6] | also measured |
| --- | --- | --- | --- | --- | --- | --- |
| CN1C(=O)C2(Cc3cn(C45CC67SSC(CO)(C(=O)N6C4Nc4ccccc45)N(C)C7=O)c4ccccc34)SSC1(CO)C(=O)N2C (stereo not drawn) [chetomin] | significantly decreased | – | – | – | – | viability at 2 h [1]: ≥ 80%; proliferation rate compared to DMSO-treated cells ([2]; chetomin 50 nM): significantly decreased |
| CN1C(=O)C23CC4=CC=CC(O)C4N2C(=O)C1(CO)SS3 (stereo not drawn) [gliotoxin] | significantly decreased | – | – | – | – | increase of cell percentage in G1 phase compared to untreated group [4]: ≥ 10%; viability [1]: ≥ 80%; proliferation rate compared to DMSO-treated cells ([2]; gliotoxin 100 nM): significantly decreased |
| C=CCN1C(=O)C2SSC1C(=O)N2CC=C [A5, 5,7-diallyl-2,3-dithia-5,7-diazabicyclo[2.2.2] octane-6,8-dione] | – | equal to or somewhat superior to that in the control vehicle-treated group | remarkably so as to be observed with the naked eye in all tested cells | efficiently inhibit colony formation | do not exhibit non-specific cytotoxicity | tumor volume over time ([7]; NSG mice, A5 300 mg/kg intraperitoneally every 3 days for 3 weeks): increase in tumor volume is suppressed; tumor size compared to untreated control group ([7]; humanized NSG mice (HuNSG), A5 300 mg/kg intraperitoneally every 3 days for 3 weeks): an effect of decreasing the tumor size is exerted; inhibiting tumor growth and decreasing tumor size, A5 alone versus pembrolizumab or A5 plus pembrolizumab ([7]; humanized NSG mice (HuNSG), pembrolizumab 5 mg/kg every 5 days for 3 weeks): superior to the pembrolizumab-treated group or the experimental group concurrently treated with A5 and pembrolizumab |
| CN1C(=O)C2SSC1C(=O)N2C [A2, 5,7-dimethyl-2,3-dithia-5,7-diazabicyclo[2.2.2] octane-6,8-dione] | – | equal to or somewhat superior to that in the control vehicle-treated group | remarkably so as to be observed with the naked eye in all tested cells | efficiently inhibit colony formation | do not exhibit non-specific cytotoxicity | – |
| O=C1N2CCCC23SSC12CCCN2C3=O [A10, 5a, 10a-dithio-octahydrodipyrrolo[1,2-a:1′,2′-d]pyrazine-5,10-dione] | – | colony formation was inhibited in most cancer cells | – | efficiently inhibit colony formation | do not exhibit non-specific cytotoxicity | – |
